Assay results as given in ChEMBL document CHEMBL2010716, “Structure based design of an in vivo active hydroxamic acid inhibitor of P. aeruginosa LpxC” (Bioorg Med Chem Lett, 2012).
In brackets after ≈: the same amount, converted by molar mass. Activity calls are given as the source filed them. The rule behind the calls is not given here.

Tests used:
Pseudomonas aeruginosa [1] = assay: Antibacterial activity against efflux pump knock-down Pseudomonas aeruginosa PAO280 by twofold broth microdilution technique; format: functional
Pseudomonas aeruginosa [2] = assay: Antibacterial activity against wild type Pseudomonas aeruginosa UI-18 by NCCLS method; format: functional
[3] = target: T1, UDP-3-O-acyl-N-acetylglucosamine deacetylase (Pseudomonas aeruginosa (strain ATCC 15692 / PAO1 / 1C / PRS 101 / LMG12228), UniProt P47205); assay: Inhibition of Pseudomonas aeruginosa LpxC
T1 sequence (P47205 whole entry): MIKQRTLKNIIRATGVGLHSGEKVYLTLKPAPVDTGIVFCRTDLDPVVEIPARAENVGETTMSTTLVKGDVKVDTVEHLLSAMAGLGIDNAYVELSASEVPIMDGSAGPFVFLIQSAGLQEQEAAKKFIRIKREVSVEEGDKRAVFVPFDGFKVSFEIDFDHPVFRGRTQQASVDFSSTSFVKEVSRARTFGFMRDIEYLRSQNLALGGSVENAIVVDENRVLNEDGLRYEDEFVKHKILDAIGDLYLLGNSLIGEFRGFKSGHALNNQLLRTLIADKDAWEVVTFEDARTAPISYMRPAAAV

[4] = Half life in human hepatocytes; format: ADME, cell-based, Liver, Hepatocyte
[5] = Kinetic solubility of the compound; format: physicochemical; details: read-out: Kinetic_solubility
Pseudomonas aeruginosa [6] = assay: Antibacterial activity against wild type Pseudomonas aeruginosa; format: functional
[7] = target: T2, UDP-3-O-acyl-N-acetylglucosamine deacetylase (Escherichia coli K-12, UniProt P0A725); assay: Inhibition of Escherichia coli LpxC
T2 sequence (P0A725 whole entry): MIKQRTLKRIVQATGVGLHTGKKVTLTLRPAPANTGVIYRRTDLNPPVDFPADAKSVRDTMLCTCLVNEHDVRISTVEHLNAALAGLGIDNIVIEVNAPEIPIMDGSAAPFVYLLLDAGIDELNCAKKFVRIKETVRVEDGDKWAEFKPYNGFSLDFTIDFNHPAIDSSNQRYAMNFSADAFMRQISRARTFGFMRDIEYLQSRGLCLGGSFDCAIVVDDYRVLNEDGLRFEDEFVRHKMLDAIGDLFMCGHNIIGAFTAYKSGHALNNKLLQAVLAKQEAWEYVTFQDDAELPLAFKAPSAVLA

Pseudomonas aeruginosa [8] = assay: Antibacterial activity against Pseudomonas aeruginosa C53; format: functional
[9] = Kinetic solubility of the compound at pH 6.5; format: physicochemical; details: buffer, read-out: Kinetic_solubility
Pseudomonas aeruginosa [10] = assay: Antibacterial activity against wild type Pseudomonas aeruginosa UI-18 infected in iv dosed mouse; format: functional; details: UI-18, iv, read-out: PD50
Pseudomonas aeruginosa [11] = assay: Antibacterial activity against wild type Pseudomonas aeruginosa UI-18 infected in sc dosed mouse; format: functional, organism-based
[12] = Half life in rat hepatocytes; format: ADME, cell-based, Liver, Hepatocyte

Row | Compound | MIC (Pseudomonas aeruginosa [1]) [mg/L] | MIC (Pseudomonas aeruginosa [2]) [mg/L] | IC50 [3] [µM] | other results
1 | C[C@@](OCc1ccc(-c2ccccc2)cc1)(C(=O)NO)[C@@H](O)c1cccnc1 | 0.5 (≈ 1.32 µM) | 32 (≈ 84.6 µM) | 0.018 | –
2 | CC(CO)(CCc1ccc(-c2ccccc2)cc1)C(=O)NO (configuration not stated) | 0.5 (≈ 1.67 µM) | 16 (≈ 53.4 µM) | 0.0033 | half-life [4]: 1.2 h; solubility kinetic [5]: 89 µM (≈ 26.6 µg/mL)
3 | C[C@@](OCc1ccc(-c2ccccc2)cc1)(C(=O)NO)[C@@H](O)c1ccno1 | 0.125 (≈ 0.339 µM) | 8 (≈ 21.7 µM) | 0.0008 | –
4 | C[C@](OCc1ccc(-c2ccccc2)cc1)(C(=O)NO)[C@@H](O)c1ccccn1 | 0.25 (≈ 0.661 µM) | 32 (≈ 84.6 µM) | 0.015 | –
5 | C[C@@H](N)[C@@H](NC(=O)N1CCN(c2ccc(C#Cc3ccccc3)cc2)CC1)C(=O)NO | – | – | – | MIC (Pseudomonas aeruginosa [6]): 12.5 mg/L (≈ 29.7 µM)
6 | CC(CO)(COc1ccc(-c2ccccc2)cc1)C(=O)NO (configuration not stated) | – | – | 0.39 | half-life [4]: 1.43 h; solubility kinetic [5]: 26 µM (≈ 7.83 µg/mL)
7 | O=C(NO)[C@@H](Cc1ccc2ccccc2c1)NS(=O)(=O)c1ccc2ccccc2c1 | – | – | – | Ki [7]: 0.02 µM; MIC (Pseudomonas aeruginosa [8]): 4 mg/L (≈ 9.51 µM)
8 | C[C@@](OCc1ccc(-c2ccccc2)cc1)(C(=O)NO)[C@@H](O)c1c[nH]cn1 | 0.125 (≈ 0.34 µM) | 8 (≈ 21.8 µM) | 0.0008 | –
9 | C[C@@](OCc1ccc(-c2ccccc2)cc1)(C(=O)NO)[C@@H](O)c1cc(CO)on1 | 0.015 (≈ 0.0376 µM) | 1 (≈ 2.51 µM) | 0.0006 | half-life [4]: 2.33 h; solubility kinetic [9]: 130 µM (≈ 51.8 µg/mL); ED50 (Pseudomonas aeruginosa [10]): 37 mg/kg; Activity (Pseudomonas aeruginosa [11]): inactive
10 | C[C@@](OCc1ccc(-c2ccccc2)cc1)(C(=O)NO)[C@@H](O)c1ccccc1 | 8 (≈ 21.2 µM) | > 64 | 0.051 | –
11 | CCc1ccc(-c2ccc(C(=O)N[C@H](C(=O)NO)[C@@H](C)O)cc2)cc1 | – | – | 0.008 | MIC (Pseudomonas aeruginosa [6]): 4 mg/L (≈ 11.7 µM); half-life [4]: 3.83 h; half-life [12]: 0.75 h
12 | C[C@@H](O)[C@](C)(OCc1ccc(-c2ccccc2)cc1)C(=O)NO | 0.75 (≈ 2.38 µM) | 64 (≈ 203 µM) | 0.004 | –
13 | CC(CO)(NC(=O)c1ccc(-c2ccccc2)cc1)C(=O)NO (racemic) | 32 (≈ 102 µM) | > 64 | 0.286 | MIC (Pseudomonas aeruginosa [6]): > 64 mg/L; half-life [4]: 3.83 h; half-life [12]: 3.67 h; solubility kinetic [5]: 200 µM (≈ 62.9 µg/mL)

Further lines, with some results ahead:

Row | MIC (Pseudomonas aeruginosa [1]) [mg/L] | MIC (Pseudomonas aeruginosa [2]) [mg/L] | IC50 [3] [µM] | Compound | other results
14 | 0.5 (≈ 1.59 µM) | 32 (≈ 101 µM) | – | C[C@H](O)[C@](C)(OCc1ccc(-c2ccccc2)cc1)C(=O)NO | –
15 | 2 (≈ 5.23 µM) | > 64 | 0.026 | Cn1nncc1[C@H](O)[C@](C)(OCc1ccc(-c2ccccc2)cc1)C(=O)NO | –
16 | 0.06 (≈ 0.163 µM) | 6 (≈ 16.3 µM) | 0.0004 | C[C@@](OCc1ccc(-c2ccccc2)cc1)(C(=O)NO)[C@@H](O)c1ccon1 | –
17 | – | – | 0.09 | CCCC[C@H](O)[C@](C)(OCc1ccc(-c2ccccc2)cc1)C(=O)NO | –
18 | 64 (≈ 179 µM) | > 64 | – | CC(C)C[C@H](O)[C@](C)(OCc1ccc(-c2ccccc2)cc1)C(=O)NO | –
19 | – | – | 0.311 | CC(C)(OCc1ccc(-c2ccccc2)cc1)C(=O)NO | MIC (Pseudomonas aeruginosa [6]): > 64 mg/L
20 | 3 (≈ 9.11 µM) | > 64 | 0.008 | CC[C@H](O)[C@@](C)(OCc1ccc(-c2ccccc2)cc1)C(=O)NO | –
21 | 0.25 (≈ 0.68 µM) | 4 (≈ 10.9 µM) | 0.0004 | C[C@@](OCc1ccc(-c2ccccc2)cc1)(C(=O)NO)[C@@H](O)c1ccn[nH]1 | –
22 | 0.015 (≈ 0.0392 µM) | 1.75 (≈ 4.58 µM) | – | Cc1cc([C@H](O)[C@](C)(OCc2ccc(-c3ccccc3)cc2)C(=O)NO)no1 | half-life [4]: 0.333 h; solubility kinetic [9]: 59 µM (≈ 22.6 µg/mL)
23 | 32 (≈ 93.2 µM) | > 64 | – | CC(C)[C@H](O)[C@](C)(OCc1ccc(-c2ccccc2)cc1)C(=O)NO | –
24 | > 64 | > 64 | 0.028 | CCOCC[C@H](O)[C@](C)(OCc1ccc(-c2ccccc2)cc1)C(=O)NO | –
25 | 0.25 (≈ 0.679 µM) | 8 (≈ 21.7 µM) | 0.003 | C[C@@](OCc1ccc(-c2ccccc2)cc1)(C(=O)NO)[C@@H](O)c1ncco1 | –
26 | 4 (≈ 13.3 µM) | > 64 | 0.022 | CC(CO)(OCc1ccc(-c2ccccc2)cc1)C(=O)NO (racemic) | MIC (Pseudomonas aeruginosa [6]): > 64 mg/L; half-life [4]: 6 h; solubility kinetic [5]: 200 µM (≈ 60.3 µg/mL)
27 | 0.19 (≈ 0.498 µM) | 33 (≈ 86.5 µM) | 0.025 | Cn1ccnc1[C@H](O)[C@](C)(OCc1ccc(-c2ccccc2)cc1)C(=O)NO | –
